The source of these data is ChEMBL document CHEMBL4825722, “Discovery of Potent Selective Nonzinc Binding Autotaxin Inhibitor BIO-32546” (ACS Med Chem Lett, 2021).

In one data set the target is Autotaxin (Homo sapiens, UniProt Q13822). Nature of the data set: Inhibition of human ATX assessed as reduction in LPA formation using FS-3 as substrate preincubated for 30 mins followed by substrate addition and measured after 2 hrs by FRET assay.
The target in data set [1] is T1, hERG (KCNH2) (Homo sapiens, UniProt Q12809). The data set can be described thus: Inhibition of human ERG at 10 uM by automated patch-clamp assay relative to control.
T1 sequence (Q12809 whole entry): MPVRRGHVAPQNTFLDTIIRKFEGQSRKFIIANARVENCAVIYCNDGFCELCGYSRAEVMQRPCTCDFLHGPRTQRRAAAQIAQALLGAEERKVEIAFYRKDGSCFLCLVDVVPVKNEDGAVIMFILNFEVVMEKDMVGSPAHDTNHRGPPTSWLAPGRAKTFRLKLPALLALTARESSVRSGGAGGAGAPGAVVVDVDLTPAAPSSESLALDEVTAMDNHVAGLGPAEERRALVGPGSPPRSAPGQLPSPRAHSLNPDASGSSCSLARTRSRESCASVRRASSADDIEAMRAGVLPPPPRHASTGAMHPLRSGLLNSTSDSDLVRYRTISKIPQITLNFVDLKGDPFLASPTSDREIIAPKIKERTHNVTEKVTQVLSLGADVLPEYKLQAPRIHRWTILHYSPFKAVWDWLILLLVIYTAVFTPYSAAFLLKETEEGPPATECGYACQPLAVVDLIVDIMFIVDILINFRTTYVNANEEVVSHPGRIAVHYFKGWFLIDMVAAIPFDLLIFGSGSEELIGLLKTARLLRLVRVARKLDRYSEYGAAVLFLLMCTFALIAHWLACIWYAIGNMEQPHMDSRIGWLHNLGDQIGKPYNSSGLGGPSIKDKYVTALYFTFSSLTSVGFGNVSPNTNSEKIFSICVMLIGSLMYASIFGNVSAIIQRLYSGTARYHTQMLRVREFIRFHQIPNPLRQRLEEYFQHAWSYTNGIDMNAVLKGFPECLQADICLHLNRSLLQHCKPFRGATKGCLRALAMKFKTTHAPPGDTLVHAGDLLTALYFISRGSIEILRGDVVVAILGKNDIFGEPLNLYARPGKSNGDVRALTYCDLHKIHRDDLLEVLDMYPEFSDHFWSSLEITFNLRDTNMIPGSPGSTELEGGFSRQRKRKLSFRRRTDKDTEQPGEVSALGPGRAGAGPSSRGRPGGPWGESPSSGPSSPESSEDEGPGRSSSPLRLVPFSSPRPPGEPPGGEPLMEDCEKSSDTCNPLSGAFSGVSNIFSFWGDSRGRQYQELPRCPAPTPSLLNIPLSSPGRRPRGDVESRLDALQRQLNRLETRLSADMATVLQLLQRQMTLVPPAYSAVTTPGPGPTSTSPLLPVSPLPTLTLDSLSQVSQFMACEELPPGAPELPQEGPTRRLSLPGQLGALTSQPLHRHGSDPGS
The target of data set [2] is T1, hERG (KCNH2). The data set can be described thus: Inhibition of human ERG at 1 uM by automated patch-clamp assay relative to control.
Data set [3] can be described thus: Protein binding in rat plasma assessed as unbound fraction. Type of data set: ADME, cell-free.
Data set [4] can be described thus: Total brain to plasma concentration ratio in rat at 10 mg/kg, po measured after 4 hrs. In kind it is ADME, organism-based. The settings on record: brain and plasma, read-out: BPR.
The nature of data set [5]: Protein binding in human plasma assessed as unbound fraction at 2 uM by rapid equilibrium dialysis method. In kind it is ADME, cell-free. In general terms: Equilibrium dialysis compares concentrations on both sides of a semipermeable membrane.
Data set [6] is described as follows: Clearance in rat at 10 mg/kg, po. In kind it is ADME, organism-based. The following applies: in vivo.
Data set [7] is described as follows: Drug concentration in rat brain at 10 mg/kg, po after 4 hrs. In kind it is ADME, organism-based. The settings on record: read-out: Ct.

A word on the IC50: it is the point on the concentration scale where inhibition reaches its midpoint. For the compound `CCCCCCCCCCCCCC(=O)OC[C@@H](O)COP(=O)(O)O`, the IC50 on Autotaxin was 110 nM.

For `O=C(O)CCCNC(=O)c1ccc2c(C(F)(F)F)c(O[C@H]3CC[C@@H](C(F)(F)F)CC3)ccc2c1`, the IC50 on Autotaxin was determined as 3700 nM.

As a reminder, the inhibition is the change of the read-out against control, counted positive when it falls. Take `C[C@@H](c1ccc2ccc(O[C@H]3CC[C@@H](C)CC3)c(C(F)(F)F)c2c1)N1C2CCCC1CC(C(=O)O)C2` (some centres not stated): testing at 10 µM at hERG (KCNH2) [1] gave an inhibition of 24.4%. The IC50 on Autotaxin came to 3.6 nM. On hERG (KCNH2) [2], this compound registered an inhibition at 1 µM of 4.6%.

As for `O=C(NCCCP(=O)(O)O)c1ccc2c(C(F)(F)F)c(O[C@H]3CC[C@@H](C(F)(F)F)CC3)ccc2c1`, the half-inhibitory concentration (IC50) at Autotaxin came out at 28 nM.

As to `O=C(O)C1CCN(Cc2ccc3c(C(F)(F)F)c(O[C@H]4CC[C@@H](C(F)(F)F)CC4)ccc3c2)CC1`, the inhibition at 10 µM against hERG (KCNH2) [1] turned out to be 86.8%. On Autotaxin, the IC50 came out at 370 nM. This compound displayed an inhibition at 1 µM against hERG (KCNH2) [2] of 6.6%.

On to `C[C@H]1CC[C@@H](Oc2ccc3ccc(CN4C5CCCC4CC(C(=O)O)C5)cc3c2C(F)(F)F)CC1` (some centres not stated), for which, at hERG (KCNH2) [1], the inhibition at 10 µM came out at 84%. Besides, the IC50 at Autotaxin came to 8.2 nM. Also, at hERG (KCNH2) [2], the inhibition at 1 µM stood at 12%.

The compound `C[C@H](c1ccc2ccc(O[C@H]3CC[C@@H](C)CC3)c(C(F)(F)F)c2c1)N1C2CCCC1CC(C(=O)O)C2` (some centres not stated) had an inhibition at 10 µM against hERG (KCNH2) [1] of 29.6%. In addition, the IC50 at Autotaxin was 330 nM. The inhibition at 1 µM against hERG (KCNH2) [2] is 8.4%.

For the compound `C[C@H]1CC[C@@H](Oc2ccc3ccc(CN4C5CCC4CC(C(=O)O)C5)cc3c2C(F)(F)F)CC1` (some centres not stated), at hERG (KCNH2) [1], the inhibition at 10 µM was determined as 65%. Moreover, at Autotaxin, the half-maximal inhibitory concentration (IC50) is 100 nM. On hERG (KCNH2) [2], this compound displayed an inhibition at 1 µM of 6%.

As to `O=C(O)CCCNCc1ccc2c(C(F)(F)F)c(O[C@H]3CC[C@@H](C(F)(F)F)CC3)ccc2c1`, at Autotaxin, the 50% inhibitory concentration (IC50) came out at 1300 nM.

On hERG (KCNH2) [1], `C[C@H]1CC[C@@H](Oc2ccc3cc(CN4C5CCCC4CC(C(=O)O)C5)ccc3c2C(F)(F)F)CC1` (some centres not stated) yielded an inhibition at 10 µM of 52.7%. Further, the half-maximal inhibitory concentration (IC50) on Autotaxin turned out to be 38 nM. In addition, at hERG (KCNH2) [2], the inhibition at 1 µM was found to be 1.6%.

Broadly, the CL/F is clearance divided by bioavailability, as obtained after extravascular dosing. With `C[C@@H](c1ccc2ccc(O[C@H]3CC[C@@H](C)CC3)c(C(F)(F)F)c2c1)N1C2CCC1CC(C(=O)O)C2` (some centres not stated), the Fu worked out at 0.22% in data set [3] and 0.18% in data set [5]. Also, the Kp at 4 h in data set [4] was determined as 0.8. In data set [6], this compound registered a CL/F of 94 mL/min/kg. In data set [7], the concentration at 4 h was 103 ng/mL.
